# Assay results: article PMC12567041 (Pharmaceutics, 2025)
# Where “and” joins values, the source holds several entries; their conditions need not be identical. Identical values can stand only once. Entries after “also recorded” stand apart in the source; their conditions may differ.
# Legend:
# [1] = cited from earlier work
# [2] = In vitro stability study in human feces; assay type: in vitro ADME; details: after 20 h
# [3] = cited from earlier work; remark: listed apart in the source
# [4] = in vitro; details: MDCK
# [5] = system: CYP3A4/5; assay: Time-dependent inhibition of CYP3A4/5; assay type: in vitro ADME; details: up to 50 μM; in-house data
# [6] = cited from earlier work; remark: listed apart in the source
# [7] = Clinical DDI studies, asciminib as victim (observed); assay type: in vivo, human; details: asciminib 200 mg single dose + phenytoin 100 mg TID
# [8] = system: CYP3A4; assay: Enzyme kinetics, recombinant CYP3A4; details: back-calculated, aim for fm = 0.351
# Description: (§1) Using the Simcyp retrograde model, initial estimates of intrinsic clearance (CLint,u) were derived based on fractional contributions from recombinant human CYP and UGT enzymes, as well as additional intrinsic clearance in HLMs attributed to hydrolysis. Enzyme kinetic parameters (Km and Vmax) were used to establish the model, with Vmax values back-calculated as the product of CLint,u and Km to match the observed fm values to the total clearance.
# [9] = system: CYP2J2; assay: Enzyme kinetics, recombinant CYP2J2; details: back-calculated, aim for fm = 0.0076
# Description: as §1
# [10] = Two-stage dissolution FaSSGF to FaSSIF; assay type: physicochemical; details: doses up to 200 mg
# Description: […]. […] In vitro two-stage dissolution experiments, during which the drug/formulation is pre-exposed to fasted-state simulated gastric fluid (FaSSGF) for a 30 min period, at the end of which, properly concentrated fasted-state simulated intestinal fluid (FaSSIF) is immediately added to FaSSGF [13], were performed to assess the risk of precipitation in vitro. […] Considering the high passive permeability, this indicates low risk for compromised absorption in vivo, further supporting the assumption of the complete absorption of asciminib in humans in the fasted state.
# [11] = HLMs; cited from earlier work
# [12] = Relative contributions of clearance pathways (fm/fe/ft); set-up: species or system human
# Text: However, as discussed below, the in vivo contribution of UGTs was later adjusted downward to account for BCRP-mediated biliary excretion.
# The contributions of CYP enzymes and renal elimination remained unchanged. […] A summary of the Simcyp output for elimination pathways, with and without BCRP, is provided in Supplementary Table S1.
# [13] = Preclinical volume of distribution across animal species; details: in vivo
# Description: Due to the inclusion of hepatic efflux transporters in Simcyp, the whole-body PBPK model was employed. […] However, the passive diffusion clearance (CLPD) in the PerL increases the Vss by moving the drug into the liver. A top-down approach was applied to adjust the Kp scalar to visually best fit the model to the distribution phase of the observed clinical PK data.
# [14] = cited from earlier work; remark: listed apart in the source
# [15] = Compartmental concentrations for static DDI risk assessment; set-up: species or system human
# [16] = Fraction unbound in microsomal incubation (fumic); assay type: in vitro ADME; details: for fraction unbound: human, microsomes (microsomal incubation)
# [17] = 40 mg dose; cited from earlier work
# [18] = cited from earlier work; remark: listed apart in the source
# [19] = system: CYP3A4
# [20] = in vitro, mean (SD); cited from earlier work
# [21] = Biopharmaceutics classification; assay type: physicochemical
# [22] = system: CYP2J2; details: Km*fumic; read-out: Km,u (CYP2J2), mean (SD); cited from earlier work
# [23] = with strong P-gp inhibitor quinidine; cited from earlier work
# [24] = system: MDCK-LE cell line; assay: Apparent passive permeability in MDCK-LE cells; details: from MDCK-LE permeability
# [25] = molecular target: T1, UGT1A4 (Homo sapiens, UniProt P22310); assay: Inhibition of recombinant UGT1A4 by imatinib; assay type: in vitro ADME
# T1 sequence (P22310 29-534): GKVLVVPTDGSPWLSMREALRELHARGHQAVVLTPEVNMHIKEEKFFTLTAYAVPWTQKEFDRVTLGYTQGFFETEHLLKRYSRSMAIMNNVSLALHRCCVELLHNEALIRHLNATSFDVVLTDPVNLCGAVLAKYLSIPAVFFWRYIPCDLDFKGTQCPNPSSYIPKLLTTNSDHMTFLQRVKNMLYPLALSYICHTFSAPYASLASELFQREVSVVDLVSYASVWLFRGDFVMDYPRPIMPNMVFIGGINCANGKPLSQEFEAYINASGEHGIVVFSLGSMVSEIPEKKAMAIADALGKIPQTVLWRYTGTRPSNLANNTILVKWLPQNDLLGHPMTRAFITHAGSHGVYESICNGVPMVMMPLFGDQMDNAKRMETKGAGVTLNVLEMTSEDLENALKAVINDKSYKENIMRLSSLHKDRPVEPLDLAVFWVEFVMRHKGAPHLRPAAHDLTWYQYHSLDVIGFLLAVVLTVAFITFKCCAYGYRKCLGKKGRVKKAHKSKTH
# [26] = Table S1, sum of hepatic and renal UGT contributions
# [27] = assuming no active biliary secretion
smiles,measurement,setting,value
"Cn1c(=O)c2c(ncn2C)n(C)c1=O [Caffeine, caffeine]",fm by CYP1A2,[1]; probe substrate property,≈ 0.9
CN(CCOc1ccc(CC2SC(=O)NC2=O)cc1)c1ccccn1 (centres unmarked) [rosiglitazone],fm by CYP2C8,[1]; probe substrate property,≈ 0.6
same,fm by CYP2C9,[1]; probe substrate property,≈ 0.3
O=C(Nc1ccc(OC(F)(F)Cl)cc1)c1cnc(N2CC[C@@H](O[C@@H]3O[C@H](C(=O)O)[C@@H](O)[C@H](O)[C@H]3O)C2)c(-c2ccn[nH]2)c1 [M30.5],stability in human feces,[2],almost completely hydrolyzed back to asciminib
same,share of the total AUC,[3]; circulating metabolite,4.93%
same,share of the administered dose,[3]; urinary metabolite,5.4–8.4%
"Cc1nnc(C(=O)NC(C)(C)c2nc(C(=O)NCc3ccc(F)cc3)c(O)c(=O)n2C)o1 [Raltegravir, raltegravir]",share eliminated by renal clearance,[1]; assumption of the raltegravir model,9%
"CCOc1cc(CC(=O)N[C@@H](CC(C)C)c2ccccc2N2CCCCC2)ccc1C(=O)O [Repaglinide, repaglinide]",fm by CYP2C8,[1]; probe substrate property,≈ 0.7
same,fm by CYP3A,[1]; probe substrate property,≈ 0.3
"COc1ccc2[nH]c([S+]([O-])Cc3ncc(C)c(OC)c3C)nc2c1 (centres unmarked) [Omeprazole, omeprazole]",fm by CYP2C19,[1]; CYP2C19 normal metabolizers,≈ 0.9
same,fm by CYP3A,[1]; probe substrate property,≈ 0.1
"C[C@H]1[C@H](NC(=O)/C(=N\OC(C)(C)C(=O)O)c2csc(N)n2)C(=O)N1S(=O)(=O)O [aztreonam, reference compound]",Papp A→B,[4]; dog,0.24 ×10⁻⁶ cm/s
"CC(C)NCC(O)COc1cccc2ccccc12 (centres unmarked) [propranolol, reference compound]",Papp A→B,[4]; dog,36 ×10⁻⁶ cm/s
O=C(Nc1ccc(OC(F)(F)Cl)cc1)c1cnc(N2CC[C@@H](O)C2)c(-c2ccn[nH]2)c1 [asciminib],time-dependent inhibition (TDI) of CYP3A4/5,[5],no apparent TDI; also recorded: no in vitro apparent time-dependent inhibition
same,Log P: Octanol–water partition/logD pH 6.8,[6],3.9
same,recovery,[4]; dog,88%
same,Papp,[4]; human,373 ×10⁻⁶ cm/s
same,"reduction of AUCinf, observed",[7],34%
same,"reduction of Cmax, observed",[7],22%
same,Vmax (CYP3A4),[8],3.8 pmol/min/pmol of CYP
same,Vmax (CYP2J2),[9],0.355 pmol/min/pmol CYP
same,duration of sustained supersaturation,[10],at least 1 h
same,precipitation in vitro,[10],< 20%
same,share of metabolism by glucuronidation,[11],~ 65%
same,share of metabolism by oxidative metabolism,[11],~ 35%
same,"CYP2C8: aim for fm/fe/ft, Simcyp output (without BCRP)",[12]; Table S1,0.007
same,"CYP2C8: aim for fm/fe/ft, final fm (including hepatic BCRP)",[12]; Table S1,0.005
same,CYP2C8: fm/fe based on hADME,[12]; Table S1,0.005
same,"CYP2D6: aim for fm/fe/ft, Simcyp output (without BCRP)",[12]; Table S1,0.003
same,"CYP2D6: aim for fm/fe/ft, final fm (including hepatic BCRP)",[12]; Table S1,0.002
same,CYP2D6: fm/fe based on hADME,[12]; Table S1,0.002
same,"CYP2J2: aim for fm/fe/ft, Simcyp output (without BCRP)",[12]; Table S1,0.011
same,"CYP2J2: aim for fm/fe/ft, final fm (including hepatic BCRP)",[12]; Table S1,0.0076
same,CYP2J2: fm/fe based on hADME,[12]; Table S1,0.0076
same,"CYP3A4: aim for fm/fe/ft, Simcyp output (without BCRP)",[12]; Table S1,0.509
same,"CYP3A4: aim for fm/fe/ft, final fm (including hepatic BCRP)",[12]; Table S1,0.351
same,CYP3A4: fm/fe based on hADME,[12]; Table S1,0.351
same,"Hepatic BCRP: aim for fm/fe/ft, final fm (including hepatic BCRP)",[12]; Table S1,0.311
same,"Hydrolysis: aim for fm/fe/ft, Simcyp output (without BCRP)",[12]; Table S1,0.010
same,"Hydrolysis: aim for fm/fe/ft, final fm (including hepatic BCRP)",[12]; Table S1,0.007
same,Hydrolysis: fm/fe based on hADME,[12]; Table S1,0.007
same,"Renal excretion: aim for fm/fe/ft, Simcyp output (without BCRP)",[12]; Table S1,0.035
same,"Renal excretion: aim for fm/fe/ft, final fm (including hepatic BCRP)",[12]; Table S1,0.044
same,Renal excretion: fm/fe based on hADME,[12]; Table S1,0.044
same,"UGT1A3: aim for fm/fe/ft, Simcyp output (without BCRP)",[12]; Table S1,0.048
same,"UGT1A3: aim for fm/fe/ft, final fm (including hepatic BCRP)",[12]; Table S1,0.033
same,UGT1A3: fm/fe based on hADME,[12]; Table S1,0.0705
same,"UGT1A4: aim for fm/fe/ft, Simcyp output (without BCRP)",[12]; Table S1,0.048
same,"UGT1A4: aim for fm/fe/ft, final fm (including hepatic BCRP)",[12]; Table S1,0.033
same,"UGT2B7: aim for fm/fe/ft, Simcyp output (without BCRP)",[12]; Table S1,0.190
same,"UGT2B7: aim for fm/fe/ft, final fm (including hepatic BCRP)",[12]; Table S1,0.131
same,"UGT2B17: aim for fm/fe/ft, Simcyp output (without BCRP)",[12]; Table S1,0.110
same,"UGT2B17: aim for fm/fe/ft, final fm (including hepatic BCRP)",[12]; Table S1,0.076
same,UGT2B17: fm/fe based on hADME,[12]; Table S1,0.163
same,UGT1A4: fm/fe based on hADME,[12]; [26],0.0705
same,UGT2B7: fm/fe based on hADME,[12]; [26],0.279
same,revised total UGT contribution to total clearance,[12]; after subtracting BCRP contribution,approximately 27.3%
same,CYP-mediated contribution to total clearance,[12]; [27],36.6%
same,UGT-mediated contribution to total clearance,[12]; [27],58.3%
same,Vd,[13],0.5 to 2.2 L/kg
same,flux in presence of elevated bile acid concentrations (FeSSIF),[14],reduced asciminib flux
same,Cgut (maximal gut concentration),[15]; 40 mg BID,356 µM
same,"Cgut,ent (maximal enterocyte concentration)",[15]; 40 mg BID,10.5 µM
same,"Ch,in,tot (total maximal hepatic inlet plasma concentration)",[15]; 40 mg BID,4.47 µM
same,"Ch,in,u (unbound maximal hepatic inlet plasma concentration at the steady state)",[15]; 40 mg BID,0.121 µM
same,Cgut (maximal gut concentration),[15]; 80 mg QD,711 µM
same,"Cgut,ent (maximal enterocyte concentration)",[15]; 80 mg QD,20.9 µM
same,"Ch,in,tot (total maximal hepatic inlet plasma concentration)",[15]; 80 mg QD,9.38 µM
same,"Ch,in,u (unbound maximal hepatic inlet plasma concentration at the steady state)",[15]; 80 mg QD,0.253 µM
same,Cgut (maximal gut concentration),[15]; 200 mg BID,1778 µM
same,"Cgut,ent (maximal enterocyte concentration)",[15]; 200 mg BID,52.4 µM
same,"Ch,in,tot (total maximal hepatic inlet plasma concentration)",[15]; 200 mg BID,26.1 µM
same,"Ch,in,u (unbound maximal hepatic inlet plasma concentration at the steady state)",[15]; 200 mg BID,0.704 µM
same,estimated gastrointestinal luminal concentration,[15]; lowest clinical dose 20 mg,~ 178 μM
same,unchanged asciminib in urine,[3],4.4 % of the administered radioactive dose
same,parent asciminib in feces due to back-conversion of M30.5,[3]; estimated from late-time-point feces profile,24%
same,CLr (renal clearance),[3]; healthy,1.8 mL/min/1.73 m^2
same,unchanged asciminib in cumulative feces,"[3]; pooled 0–96 h or 0–168 h, average",56.7 % of the dose
same,fumic,[16]; 0.810 mg of protein/mL (CYP3A4 incubation),0.160
same,fumic,[16]; 1.40 mg of protein/mL (CYP2J2 incubation),0.0925
same,fumic,[16]; 1.5 mg of protein/mL (UGT incubation),0.0811
same,fumic,[16]; 1.58 mg of protein/mL (CYP2C8 incubation),0.0829
same,fumic,[16]; 1.86 mg of protein/mL (CYP2D6 incubation),0.0680
same,fraction unbound,[16]; 0.025 mg/mL of protein,0.871
same,fraction unbound,[16]; 0.05 mg/mL of protein,0.75
same,fraction unbound,[16]; 0.5 mg/mL of protein,0.208
same,AUC in cancer patients,[17],5800 to 6100 ng·h/mL
same,"exposure reduction, high-fat fed",[18],70%
same,"exposure reduction, low-fat fed",[18],33%
same,"Emax (CYP3A4), non-calibrated",[19],Non-calibrated Emax = 4.4 In-house data fold
same,"Indmax (=Emax + 1) (CYP3A4), in vitro measured",[19],5.4 fold
same,fup (fraction unbound in plasma),[20],0.027 (0.011)
same,biopharmaceutics classification system (BCS) class,[21],class II
same,Km,[22],0.694 µM
same,decrease of asciminib AUC,[23],13%
same,decrease of asciminib Cmax,[23],11%
same,predicted fraction absorbed (fa),[24],93% and ~ 93%
Cc1ccc(NC(=O)c2ccc(CN3CCN(C)CC3)cc2)cc1Nc1nccc(-c2cccnc2)n1 [imatinib],IC50,[25],15 µM
